Reference: patent US20240279684A1, “CYTOSOLIC DELIVERY OF GENOME EDITING TOOLS” (SAPREME TECHNOLOGIES B.V., priority 2021, published 2024)

Assays:
Neuro-2A-cells [1] = assay: Confluence measurements during PD-transfections (Cytosmart live-cell imager); type: cell-based, murine; settings: Cas9-GFP- and GFP-DNA-transfections ± saponin, up to 95 h, vs untreated negative control
Procedure: FIG. 5A-F. Confluence measurements of Neuro-2A-cells during PD (Cas9-GFP)-transfections ±saponin-administration. A visual monitoring of confluence was conducted during the Cas9-GFP-transfections (FIGS. 5A, E, F) and GFP-DNA-transfections (FIGS. 5A, C, D) of Neuro-2A-cells. The display of confluence during the incubation time was provided by algorithms of the Cytosmart. […] Saponin GE1741 was absent (FIGS. 5A, C, E) or present (FIGS. 5A, D, F) during the confluency assessment over time. FIG. 5B-F show the Neuro-2A cell-confluency after an incubation time of 95 h.
In the course of the transfection process of Neuro-2A-cells (seeding, transfection, incubation), the cells were fully imaged and analyzed for confluence by a live-cell imager (Cytosmart Omni). Via cloud-based algorithms, which processed the visual images, the Cytosmart provided a valuable measure of viability in terms of confluence.

Neuro-2A-cells [2] = assay: Slc knock-out / GFP-Puromycin donor knock-in co-transfection, GFP fluorescence; type: cell-based, murine; settings: for transfection efficiency: PDD (Cas9-gRNA(Slc26a4)-DNA, GFP-Puromycin-LDS)
Procedure: For further knock-out experiments, GE1741 and Neuro-2A cells were tested. The integration of a linear donor sequence (LDS) containing the gene for GFP into the genomic DNA was assessed using three kits from Origene (Herford, Germany): The Slcl9a3-KN2.0 (CAT #: KN515911), the Slc25a24-KN2.0 (CAT #: KN515970) and the Slc26a4-KN2.0 (CAT #: KN516006), which kits all three were mouse gene knock-out kits via CRISPR, non-homology mediated. The kits contained all-in-one plasmids, coding for Cas9 and the target specific sgRNAs. The Slc26a4 kit targeted the solute carrier family 26, member 4 in the chromosome 12. The indel efficiency by targeting the locus Slc26a4 could be already shown in Neuro-2A cells (Ryu et al., 2018), and for the linear-donor-kits (Slc19a3, Slc25a24) two different sgRNA-sequences were tested. […] Thus, for the knock-out of different solute carrier genes (Sic) in Neuro-2A-cells via CRISPR/Cas9, neuro-2A-cells were transfected with different kits in order to compare the efficiency of different targets (knocked-out gene) and different integration techniques (see FIG. 8 and FIG. 10).
FIG. 9A-D Transfection efficiency of saponin-mediated PDD (Cas9-gRNA (Slc26a4)-DNA, LDS-DNA)-transfections. A: Neuro-2A-cells were transfected with PDD-nanoplexes (Cas9-gRNA (Slc26a4)-DNA, GFP-Puromycin-LDS, 4:1 and 8:1 mass ratio when the mass of the peptide and the DNA are considered), with and without GE1741-Co-administration. The application of GE1741 led to a transfection efficiency of 20% and 30%, respectively, for the 4:1 and 8:1 mass ratio. Lipofectamin3000 served as positive control. B-D: Distinct fluorescence intensity increase of Neuro-2A-cells after saponin-mediated GFP-gene knock-in. n≥3; *: significant difference compared to the saponin-free transfection (only nuclease), U-test was performed. FIG. 9B: negative control; FIG. 9C: PDD(Cas9-gRNA(Slc26a4)-DNA, Puro-GFP-LDS), 4:1); FIG. 9D: PDD(Cas9-gRNA(Slc26a4)-DNA, Puro-GFP-LDS), 4:1)+GE1741.
FIG. 11A, B. Knockout of different solute carrier (Sic) in Neuro-2A-cells—homologous recombination vs. non-homologous recombination. Neuro-2A-cells were transfected using NHR kits and using HR kits in order to compare the efficiency for different targets and different integration techniques, under influence of the absence or presence of saponin GE1741 in the K16-peptide comprising nanoplexes. […] (A) co-transfection of plasmid DNA comprising nucleic acids encoding for Cas9 and gRNA(Slc26a4), and LDS DNA encoding for puromycin and green fluorescent protein (Puro-GFP-LDS). (B) co-transfection of plasmid DNA comprising nucleic acids encoding for Cas9 and gRNA(Slc), and donor template DNA encoding for puromycin and green fluorescent protein (Puro-GFP-DS) provided as DNA vector.
The co-transfection of Neuro-2A-cells with the plasmid DNA encoding for the Cas9 and the gRNA, and the LDS encoding for the GFP and the Puromycin, was done in a poly-lysine K16 peptide—nucleic acid ratio of 4:1 and 8:1, and plasmid DNA and LDS was complexed equally (500 ng/well). Transfections of cells were performed with and without GE1741 in the cell culture medium in which the cells were cultured. The transfection efficiency under influence of the absence or presence of the saponin was compared to transfection under influence of the presence of Lipofectamin3000 during transfection of the cells.
The integration of donor sequence into the genome can be performed via non-homologous recombination (‘NHR’) and homologous recombination (‘HR’). […]

## CC(=O)OC1C(C)OC(OC2C(C)OC(OC(=O)C34CCC(C)(C)CC3C3=CCC5C6(C)CCC(OC7OC(C(=O)O)C(O)C(OC8OCC(O)C(O)C8O)C7OC7OC(CO)C(O)C(O)C7O)C(C)(C=O)C6CCC5(C)C3(C)CC4O)C(OC3OC(C)C(OC4OCC(O)C(OC5OCC(O)C(O)C5O)C4O)C(O)C3O)C2O)C(O)C1OC(C)=O (stereo not drawn) [GE1741]
Neuro-2A-cells [1]
  toxic effects by confluence: No distinct toxic effects
Neuro-2A-cells [2]; HR-knock-in kits (Slc4a4, Slc11a2), circular donor
  GFP expression (in words): no GFP expression
Neuro-2A-cells [2]; NHR-knock-in kits with LDS (Slc26a4, Slc19a3, Slc25a24), U-test
  transfection efficiency vs saponin-free transfection (in words): significant increase of transfection efficiency
Neuro-2A-cells [2]; 4:1 mass ratio
  transfection efficiency: 20%
Neuro-2A-cells [2]; 8:1 mass ratio
  transfection efficiency: 30%
Neuro-2A-cells [2]; co-transfection Cas9-gRNA plasmid + LDS, 500 ng/well each, ratio 4:1 and 8:1
  transfected cells expressing fluorescence: over 30%
